Source: patent US9889113B2, “Method for reversing, preventing, delaying or stabilizing soft tissue calcification” (Panion & BF Biotech, Inc., priority 2006, dated 2018)

Test system: patients with end stage renal disease (ESRD)
Assay: Treatment-emergent adverse events in the dose-ranging study
Type: in vivo, human
From the text: Objectives: (1) To determine the effect of ferric citrate at doses of 2, 4 and 6 g daily, administered TID (three times a day), for 28 days on serum phosphate (PO4) levels in patients with end stage renal disease (ESRD). (2) To evaluate the safety of ferric citrate at doses of 2, 4, 6 g daily, administered TID, for 28 days in patients with ESRD.
Study Design: Randomized, double-blind, placebo-controlled, dose-ranging study to assess the effect of ferric citrate on serum phosphate concentrations in patients with ESRD on hemodialysis. Patients are assessed at Study Days 14 and 28 for effectiveness as measured by serum phosphate concentrations. Patients who received one or more doses of study medication are also assessed for safety.

O=C([O-])CC(O)(CC(=O)[O-])C(=O)[O-].[Fe+3] [ferric citrate]
Abdominal Pain (Preferred Term): # Event (2 g/day (N = 33)): 0
Abdominal Pain (Preferred Term): (%) (2 g/day (N = 33)): (0.0) %
Diarrhea (Preferred Term): # Event (2 g/day (N = 33)): 3
Diarrhea (Preferred Term): (%) (2 g/day (N = 33)): (9.1) %
GI Disorder, Definitely (relationship): # Event (2 g/day (N = 33)): 0
GI Disorder, Definitely (relationship): (%) (2 g/day (N = 33)): (0.0) %
GI Disorder, Possibly (relationship): # Event (2 g/day (N = 33)): 3
GI Disorder, Possibly (relationship): (%) (2 g/day (N = 33)): (9.1) %
GI Disorder, Probably (relationship): # Event (2 g/day (N = 33)): 2
GI Disorder, Probably (relationship): (%) (2 g/day (N = 33)): (6.1) %
GI Disorders (System Organ Class): # Event (2 g/day (N = 33)): 8
GI Disorders (System Organ Class): (%) (2 g/day (N = 33)): (24.2) %
GI Disorders, Mild (severity): # Event (2 g/day (N = 33)): 6
GI Disorders, Mild (severity): (%) (2 g/day (N = 33)): (18.2) %
General Disorders (System Organ Class): # Event (2 g/day (N = 33)): 4
General Disorders (System Organ Class): (%) (2 g/day (N = 33)): (12.1) %
Infections and Infestations (System Organ Class): # Event (2 g/day (N = 33)): 0
Infections and Infestations (System Organ Class): (%) (2 g/day (N = 33)): (0.0) %
Skin and SC Tissue Disorders (System Organ Class): # Event (2 g/day (N = 33)): 3
Skin and SC Tissue Disorders (System Organ Class): (%) (2 g/day (N = 33)): (9.1) %
T#at1AE, Definitely (relationship): # Event (2 g/day (N = 33)): 0
T#at1AE, Definitely (relationship): (%) (2 g/day (N = 33)): (0.0) %
T#at1AE, Mild (severity): # Event (2 g/day (N = 33)): 13
T#at1AE, Mild (severity): (%) (2 g/day (N = 33)): (39.4) %
T#at1AE, Moderate (severity): # Event (2 g/day (N = 33)): 6
T#at1AE, Moderate (severity): (%) (2 g/day (N = 33)): (18.2) %
T#at1AE, Possibly (relationship): # Event (2 g/day (N = 33)): 5
T#at1AE, Possibly (relationship): (%) (2 g/day (N = 33)): (15.2) %
T#at1AE, Probably (relationship): # Event (2 g/day (N = 33)): 2
T#at1AE, Probably (relationship): (%) (2 g/day (N = 33)): (6.1) %
T#at1AE, Severe (severity): # Event (2 g/day (N = 33)): 0
T#at1AE, Severe (severity): (%) (2 g/day (N = 33)): (0.0) %
Total number of subjects with at least one adverse event (T#at1AE): # Event (2 g/day (N = 33)): 16
Total number of subjects with at least one adverse event (T#at1AE): (%) (2 g/day (N = 33)): (48.5) %
Abdominal Pain (Preferred Term): # Event (4 g/day (N = 34)): 4
Abdominal Pain (Preferred Term): (%) (4 g/day (N = 34)): (11.8) %
Diarrhea (Preferred Term): # Event (4 g/day (N = 34)): 1
Diarrhea (Preferred Term): (%) (4 g/day (N = 34)): (2.9) %
GI Disorder, Definitely (relationship): # Event (4 g/day (N = 34)): 0
GI Disorder, Definitely (relationship): (%) (4 g/day (N = 34)): (0.0) %
GI Disorder, Possibly (relationship): # Event (4 g/day (N = 34)): 6
GI Disorder, Possibly (relationship): (%) (4 g/day (N = 34)): (17.6) %
GI Disorder, Probably (relationship): # Event (4 g/day (N = 34)): 2
GI Disorder, Probably (relationship): (%) (4 g/day (N = 34)): (5.9) %
GI Disorders (System Organ Class): # Event (4 g/day (N = 34)): 10
GI Disorders (System Organ Class): (%) (4 g/day (N = 34)): (29.4) %
GI Disorders, Mild (severity): # Event (4 g/day (N = 34)): 8
GI Disorders, Mild (severity): (%) (4 g/day (N = 34)): (23.5) %
General Disorders (System Organ Class): # Event (4 g/day (N = 34)): 2
General Disorders (System Organ Class): (%) (4 g/day (N = 34)): (5.9) %
Infections and Infestations (System Organ Class): # Event (4 g/day (N = 34)): 3
Infections and Infestations (System Organ Class): (%) (4 g/day (N = 34)): (8.8) %
Skin and SC Tissue Disorders (System Organ Class): # Event (4 g/day (N = 34)): 0
Skin and SC Tissue Disorders (System Organ Class): (%) (4 g/day (N = 34)): (0.0) %
T#at1AE, Definitely (relationship): # Event (4 g/day (N = 34)): 0
T#at1AE, Definitely (relationship): (%) (4 g/day (N = 34)): (0.0) %
T#at1AE, Mild (severity): # Event (4 g/day (N = 34)): 9
T#at1AE, Mild (severity): (%) (4 g/day (N = 34)): (26.5) %
T#at1AE, Moderate (severity): # Event (4 g/day (N = 34)): 3
T#at1AE, Moderate (severity): (%) (4 g/day (N = 34)): (8.8) %
T#at1AE, Possibly (relationship): # Event (4 g/day (N = 34)): 6
T#at1AE, Possibly (relationship): (%) (4 g/day (N = 34)): (17.6) %
T#at1AE, Probably (relationship): # Event (4 g/day (N = 34)): 2
T#at1AE, Probably (relationship): (%) (4 g/day (N = 34)): (5.9) %
T#at1AE, Severe (severity): # Event (4 g/day (N = 34)): 2
T#at1AE, Severe (severity): (%) (4 g/day (N = 34)): (5.9) %
Total number of subjects with at least one adverse event (T#at1AE): # Event (4 g/day (N = 34)): 12
Total number of subjects with at least one adverse event (T#at1AE): (%) (4 g/day (N = 34)): (35.3) %
Abdominal Pain (Preferred Term): # Event (6 g/day (N = 33)): 2
Abdominal Pain (Preferred Term): (%) (6 g/day (N = 33)): (6.1) %
Diarrhea (Preferred Term): # Event (6 g/day (N = 33)): 1
Diarrhea (Preferred Term): (%) (6 g/day (N = 33)): (3.0) %
GI Disorder, Definitely (relationship): # Event (6 g/day (N = 33)): 0
GI Disorder, Definitely (relationship): (%) (6 g/day (N = 33)): (0.0) %
GI Disorder, Possibly (relationship): # Event (6 g/day (N = 33)): 1
GI Disorder, Possibly (relationship): (%) (6 g/day (N = 33)): (3.0) %
GI Disorder, Probably (relationship): # Event (6 g/day (N = 33)): 5
